Paper PMC3198402 (PLoS ONE, 2011)
Where no end group is shown, it is not given here.

Biological target: HLA-A*24:03 (Homo sapiens, UniProt P04439, D101N/D140Y/D185E/E176V/F33S/G103R/G107R/I119L/I121M/I306V/K335N/L105A/L180Q/L300P/N151K/N90K/Q86E/Q94H/R106L/R138H/R89G/T104I/T345S/V100E/Y123F)
Assay: biochemical
Format: binding

Sequence	Kd [nM]
GFLNEDHWF [Peptide 14615]	34
GFMNEDHWF [Peptide 14622]	17
MALVAFLRF [Peptide 14610]	13
TYGWNIVKL [Peptide 14623]	76
WYGMEIRPL [Peptide 14612]	119
WYMWLGARF [Peptide 14613]	19

Biological target: HLA-A*02:01 (Homo sapiens, UniProt P04439, D140Y/D185E/D98H/E176V/E277Q/G131W/G231S/I119V/I121R/I166T/I218V/L300P/L318F/N151K/N90K/P208A/P217A/Q86G/Q94H/R138H/R169H/T345S)
Assay: biochemical
Format: binding

Sequence	Kd [nM]
ILTDGPERV [Peptide 14602]	4
KMDIGVPLL [Peptide 14598]	1
LLLTLLATV [Peptide 14597]	43
PLNEGIMAV [Peptide 14600]	48
SMVNGVVKL [Peptide 14605]	25
SMVNGVVRL [Peptide 14599]	2
TLYAVATTV [Peptide 14606]	1
VLNPYMPTV [Peptide 14604]	1
YMPSVVETL [Peptide 14607]	1
